From patent US11312702B2, “Substituted quinoline-8-carbonitrile derivatives having androgen receptor degradation activity and uses thereof” (ACCUTAR BIOTECHNOLOGY INC., priority 2019, dated 2022) come the findings set out here.

What all share (type): cell-based
The target in assay [1] is T1, androgen receptor (AR) (Homo sapiens, UniProt P10275, T878A).
T1 construct: endogenous in cells; host or cells: LNCAP
T1 sequence (P10275 1-920 T878A): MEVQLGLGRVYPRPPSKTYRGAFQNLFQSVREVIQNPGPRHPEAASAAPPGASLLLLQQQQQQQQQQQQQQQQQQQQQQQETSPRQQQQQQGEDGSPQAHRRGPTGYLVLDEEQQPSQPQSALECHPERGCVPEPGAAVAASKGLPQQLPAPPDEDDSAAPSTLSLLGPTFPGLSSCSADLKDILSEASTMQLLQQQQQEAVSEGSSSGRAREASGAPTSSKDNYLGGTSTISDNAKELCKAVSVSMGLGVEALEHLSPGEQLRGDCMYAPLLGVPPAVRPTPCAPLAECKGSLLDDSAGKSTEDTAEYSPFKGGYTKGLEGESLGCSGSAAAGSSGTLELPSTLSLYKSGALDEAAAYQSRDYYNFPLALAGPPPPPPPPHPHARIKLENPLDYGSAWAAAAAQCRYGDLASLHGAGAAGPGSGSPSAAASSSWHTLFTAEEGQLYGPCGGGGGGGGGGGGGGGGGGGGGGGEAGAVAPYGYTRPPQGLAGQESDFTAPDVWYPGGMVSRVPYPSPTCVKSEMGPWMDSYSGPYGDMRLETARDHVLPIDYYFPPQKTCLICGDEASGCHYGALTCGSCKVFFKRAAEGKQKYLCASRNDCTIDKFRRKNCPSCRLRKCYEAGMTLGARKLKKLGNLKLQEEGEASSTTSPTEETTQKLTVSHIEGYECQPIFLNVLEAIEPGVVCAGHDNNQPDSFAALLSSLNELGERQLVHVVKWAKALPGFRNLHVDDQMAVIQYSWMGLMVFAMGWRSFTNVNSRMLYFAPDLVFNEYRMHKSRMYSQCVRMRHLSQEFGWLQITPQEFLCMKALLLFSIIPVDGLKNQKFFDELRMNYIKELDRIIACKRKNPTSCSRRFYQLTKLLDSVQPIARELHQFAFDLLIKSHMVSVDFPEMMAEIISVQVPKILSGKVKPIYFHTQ
In words: AR degradation activity in LNCAP cells (Western blot). Conditions: LNCAP cell line, 24 hours after administration; DC50 = concentration for 50% target protein degradation. The method, then: (§1) LNCAP, VCAP and 22Rv1 cells were plated in 24-well plates at 1.5×10E5 cells/well in the RPMI growth medium containing 10% FBS and 1% Penicillin Streptomycin, and then incubated at 37° C. overnight. The following day, the test compound was administered to the cells by using 1000× compound stock solution prepared in DMSO at various concentrations. After administration of the compound, the cells were then incubated at 37° C. for 24 hours. Upon completion, the cells were washed with PBS and protein was collected in Laemmli sample buffer (1×; VWR International). Proteins in cell lysate were separated by SDS-PAGE and transferred to Odyssey nitrocellulose membranes (Licor) with iblot® dry blotting transfer system (ThermoFisher). Nonspecific binding was blocked by incubating membranes with Intercept Blocking Buffer (Licor) for 1 hour at room temperature with gentle shaking. The membranes were then incubated overnight at 4° C. with Primary antibodies rabbit anti-AR (1:1,000, Cell Signaling, 5153) and mouse anti-GAPDH (1:5,000, Santa Cruz Biotechnology, sc-47724) diluted in Intercept Blocking Buffer containing 0.1% Tween 20. After washing 3 times with TBS-T, the membranes were incubated with IRDye® […] goat anti-mouse IgG (1:20,000, Licor) or IRDye®8000W goat anti-rabbit IgG (1:20,000, Licor) for 1 hour. After TBS-T washes, membranes were rinsed in TBS and scanned on Odyssey® CLx Imaging System (Licor). The bands were quantified using Image Studio™ Software (Licor).
(§2) Table 4 summarizes the androgen receptor (AR) degradative activity and cell growth inhibition of exemplary compounds in (a) LNCAP, VCAP, and 22Rv1 cell lines 24 hours after administration of the compound; (b) RAMOS cell line 3 days after administration of the compound; and (c) VCAP cell line 6 days after administration of the compound. DC50: compound concentration needed for 50% target protein degradation.

The next assay deals with RAMOS cells. In words: Cell growth inhibition for Ramos cells (CellTiter-Glo). Conditions: Homo sapiens, 72 h; RAMOS cell line, 3 days after administration. The method, then:
RAMOS cells (ATCC) were seeded in 96-well plates at 16,000 cell/well in 90 μl of RPMI growth medium containing 10% Heat-Inactivated Fetal Bovine Serum and 1% Penicillin/Streptomycin. The test compound was administered to the cells by using 10× compound stock solution prepared in growth medium at various concentrations. After administration of the compound, cells were then incubated at 37° C. for 3 days. Before CellTiter-Glo assay, the plates were equilibrated at room temperature for approximately 10 minutes. 100 ul of CellTiter-Glo® Reagent (Promega) was added to each well. The plates were then incubated at room temperature for 10 minutes and luminescence was recorded by EnSpire plate reader (PerkinElmer).
as §2
On the technique in general: In ATP-based viability assays light output follows the ATP content of the culture.

Assay [2] has as its system androgen receptor (AR). The assay can be described thus: AR degradation activity in 22Rv1 cells (Western blot). The following applies: 22Rv1 cell line, 24 hours after administration; DC50 = concentration for 50% target protein degradation. As for the experimental part: as §1, §2
Background: In western blotting, separated proteins are transferred to a membrane and probed.

The target in assay [3] is T2, androgen receptor (AR) (Homo sapiens, UniProt P10275).
T2 construct: endogenous in cells; host or cells: VCAP
T2 sequence (P10275 1-920): T1 sequence (P10275 1-920 T878A) with A878T
In words: AR degradation activity in VCAP cells (Western blot). The following applies: VCAP cell line, 24 hours after administration; DC50 = concentration for 50% target protein degradation. As for the experimental part:
as §1, §2

A further assay has as its system VCAP cells. In words: Cell growth inhibition for VCAP cells (CellTiter-Glo). Conditions: Homo sapiens, 144 h; VCAP cell line, 6 days after administration, 0.1 nM R1881, charcoal-stripped FBS. As for the experimental part: VCAP cells (ATCC) were seeded in 96-well plates at 3000 cell/well in 80 μl of DMEM growth medium containing 10% charcoal-stripped FBS (CSS) and 1% Penicillin/Streptomycin. Cells were incubated at 37° C. overnight. The following day, the test compound was administered to the cells by using 10× compound stock solution prepared in growth medium at various concentrations. Four hours later, 0.1 nM R1881 (Sigma) was administered to the cells by using 10× compound stock solution prepared in growth medium. 0.1% DMSO with or without 0.1 nM R1881 was administered as control. Cells were then incubated at 37° C. for 6 days. Before CelTiter-Glo assay, the plates were equilibrated at room temperature for approximately 10 minutes. 100 ul of CellTiter-Glo® Reagent (Promega) was added to each well. The plates were then incubated at room temperature for 10 minutes and luminescence was recorded by EnSpire plate reader (PerkinElmer).
as §2

Numbering of substitutions follows the chain as printed. Bounds are passed on as bounds.

With `CC1(C)[C@H](NC(=O)c2ccc(N3CCC(CN4CCN(c5ccc6c(c5)CN([C@H]5CCC(=O)NC5=O)C6=O)CC4)CC3)cc2)C(C)(C)[C@H]1Oc1ccc(C#N)c2ncccc12` [Compound 2-49, N-((1,3-trans)-3-((8-cyanoquinolin-5-yl)oxy)-2,2,4,4-tetramethylcyclobutyl)-4-(4-((4-(2-((S)-2,6-dioxopiperidin-3-yl)-1-oxoisoindolin-5-yl)piperazin-1-yl)methyl)piperidin-1-yl)benzamide], the 50% degradation concentration (DC50) on androgen receptor (AR) [1], in the assay on androgen receptor (AR) [2] and on androgen receptor (AR) [3] was 0.4 nM each time. Besides, the figures for the GI50 in the assay on RAMOS cells and in the assay with VCAP cells were above 3000 nM and 8.2 nM, respectively.

A word on the DC50: it is the midpoint of the concentration-degradation curve. Low values mean a more potent degrader, high ones a less potent degrader. Usually GI50 stands for the concentration at which growth is held to half of that of the control.
